Data taken from ChEMBL document CHEMBL1141238, “Cyclohexyl-linked tricyclic isoxazoles are potent and selective modulators of the multidrug resistance protein (MRP1)” (Bioorg Med Chem Lett, 2005).

What was measured:
[1] = target: T1, Multidrug resistance-associated protein 1 (Homo sapiens, UniProt P33527); experiment: Inhibitory activity against MRP1 in HeLa-T5 cells; assay type: functional, cell-based
[2] = target: T1, Multidrug resistance-associated protein 1; experiment: Inhibitory activity against MRP1-mediated LTC4 uptake into membrane vesicles from HeLa-T5 cells expressing MRP1; assay type: functional, cell-based

T1 sequence (P33527 whole entry): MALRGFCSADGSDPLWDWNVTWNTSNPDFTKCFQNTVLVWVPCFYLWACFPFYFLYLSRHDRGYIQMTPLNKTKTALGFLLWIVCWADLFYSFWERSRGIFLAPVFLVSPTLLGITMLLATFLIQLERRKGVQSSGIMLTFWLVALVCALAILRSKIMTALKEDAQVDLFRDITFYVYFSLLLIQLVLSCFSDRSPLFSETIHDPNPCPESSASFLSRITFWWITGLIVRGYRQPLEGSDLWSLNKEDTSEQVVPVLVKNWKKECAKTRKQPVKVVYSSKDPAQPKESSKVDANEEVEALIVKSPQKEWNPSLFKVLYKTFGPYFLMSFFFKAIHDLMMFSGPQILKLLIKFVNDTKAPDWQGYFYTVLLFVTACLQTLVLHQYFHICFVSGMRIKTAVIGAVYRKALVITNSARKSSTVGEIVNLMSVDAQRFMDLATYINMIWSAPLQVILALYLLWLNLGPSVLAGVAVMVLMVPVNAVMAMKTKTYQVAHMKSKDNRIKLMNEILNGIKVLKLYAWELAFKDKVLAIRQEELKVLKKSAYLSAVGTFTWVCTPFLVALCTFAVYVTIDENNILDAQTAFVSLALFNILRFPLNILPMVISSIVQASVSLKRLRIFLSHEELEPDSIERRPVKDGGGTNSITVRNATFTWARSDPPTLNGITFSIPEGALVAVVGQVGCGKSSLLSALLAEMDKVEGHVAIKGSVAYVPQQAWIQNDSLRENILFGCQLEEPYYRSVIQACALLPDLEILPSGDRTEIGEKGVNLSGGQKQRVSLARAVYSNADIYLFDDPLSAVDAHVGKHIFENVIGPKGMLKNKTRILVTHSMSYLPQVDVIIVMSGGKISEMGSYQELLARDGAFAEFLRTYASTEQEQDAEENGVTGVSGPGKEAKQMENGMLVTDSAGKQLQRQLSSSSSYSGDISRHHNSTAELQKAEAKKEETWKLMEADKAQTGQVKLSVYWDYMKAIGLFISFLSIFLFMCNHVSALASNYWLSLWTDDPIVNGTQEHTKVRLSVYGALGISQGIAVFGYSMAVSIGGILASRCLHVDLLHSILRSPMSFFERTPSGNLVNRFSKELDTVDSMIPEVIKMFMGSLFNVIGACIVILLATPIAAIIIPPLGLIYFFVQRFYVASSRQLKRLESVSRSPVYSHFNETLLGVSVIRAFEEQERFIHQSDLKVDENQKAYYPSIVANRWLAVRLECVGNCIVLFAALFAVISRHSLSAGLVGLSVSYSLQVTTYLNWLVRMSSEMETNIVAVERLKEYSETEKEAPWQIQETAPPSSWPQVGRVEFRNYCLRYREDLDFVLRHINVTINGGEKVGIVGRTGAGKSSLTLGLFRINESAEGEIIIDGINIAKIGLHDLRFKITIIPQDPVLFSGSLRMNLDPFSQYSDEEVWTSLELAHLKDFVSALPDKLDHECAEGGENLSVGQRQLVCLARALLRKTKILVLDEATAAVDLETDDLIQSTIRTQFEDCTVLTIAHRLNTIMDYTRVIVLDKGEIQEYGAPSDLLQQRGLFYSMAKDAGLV

## Cc1onc2c1c(=O)n([C@H]1CCC[C@H](CNC(=O)c3ccccc3)C1)c1cccc(Cl)c21 (racemic)
[1]
  EC50: 640 nM
[2]
  IC50: 1010 nM

## COc1cc(C(=O)NC[C@@H]2CCC[C@H](n3c(=O)c4c(C)onc4c4c(Cl)cccc43)C2)cc(OC)c1OC (racemic)
[1]
  EC50: 250 nM
[2]
  IC50: 270 nM

## COc1cc(C(=O)NC[C@H]2CCC[C@H](n3c(=O)c4c(C)onc4c4c(Cl)cccc43)C2)cc(OC)c1OC (racemic)
[1]
  EC50: 420 nM

## Cc1onc2c1c(=O)n([C@H]1CCC[C@@H](CNC(=O)c3ccccc3)C1)c1cccc(Cl)c21 (racemic)
[1]
  EC50: 180 nM
[2]
  IC50: 38 nM
